In PubChem BioAssay (NCI) one finds TGI and GI50 data, which are given here for twelve compounds.

Molecules are shown by their SMILES. “And” between values parts separate entries of the source, which are not always exact repeats. Identical values can stand only once.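 96-well plates; 48 h exposure; 5 concentrations. Endpoints by linear interpolation between flanking doses. Not reached: highest tested concentration assigned. Abbreviation: GI50, concentration required for 50% inhibition of growth. TGI: concentration producing complete growth inhibition.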 Some results are limits rather than exact numbers.

Among the test systems are 786-0 renal; A498 renal; A549 NSCLC; EKVX NSCLC; HCC-2998 colon; HL-60(TB) leukemia; HS 578T breast; KM12 colon; M14 melanoma; MALME-3M melanoma; MCF7 breast; MDA-MB-435; MDA-N; OVCAR-4 ovarian; SF-295 CNS; SW-620 colon; TK-10 renal.
Holding throughout (assay): growth of human tumour cells (NCI), 48 h

Turning to `Oc1cc(F)cc2cccnc12`, the TGI in the experiment with 786-0 renal was greater than 100 µM; in the experiment with A498 renal, greater than 68.1 µM; in the experiment on A549 NSCLC, greater than 50.8 µM; with EKVX NSCLC, greater than 100 µM; with HCC-2998 colon, greater than 100 µM; in the experiment with HL-60(TB) leukemia it was 0.454 µM. The TGI in the experiment with HS 578T breast is greater than 100 µM; in the experiment with KM12 colon it was greater than 100 µM; with M14 melanoma, 22.1 µM; in the experiment on MALME-3M melanoma it was greater than 100 µM; in the experiment on MCF7 breast, greater than 39.7 µM; with MDA-MB-435 it was greater than 100 µM. Besides, the TGI in the experiment on MDA-N, in the experiment with OVCAR-4 ovarian, in the experiment on SF-295 CNS, in the experiment on SW-620 colon and in the experiment with TK-10 renal was greater than 100 µM in each case.

On to `COC(=O)C(Cc1ccccc1)NP(=O)(O)OCC1OC(n2ccc(N)nc2=O)C(O)C1O` (configuration not stated), for which the TGI in the experiment on 786-0 renal, in the experiment with A498 renal, with A549 NSCLC, in the experiment on EKVX NSCLC, with HCC-2998 colon and in the experiment on HL-60(TB) leukemia was greater than 100 µM in each case. Moreover, the TGI with HS 578T breast, with KM12 colon, in the experiment on M14 melanoma, in the experiment with MALME-3M melanoma, in the experiment with MCF7 breast and in the experiment on MDA-MB-435 was greater than 100 µM in each case. For the same compound, the TGI in the experiment on MDA-N, in the experiment on OVCAR-4 ovarian, with SF-295 CNS, in the experiment on SW-620 colon and in the experiment on TK-10 renal was greater than 100 µM in each case.

In the case of `C/C=C/C(O)P(=O)(OC)OC` (configuration not stated), the TGI with 786-0 renal is 0.36 µM; in the experiment with A498 renal, 0.955 µM; in the experiment with A549 NSCLC, 1.07 µM; in the experiment with EKVX NSCLC, 1.51 µM; in the experiment with HCC-2998 colon, 0.774 µM; in the experiment on HL-60(TB) leukemia, 0.591 µM. Also, the TGI in the experiment with HS 578T breast worked out at 0.915 µM; with KM12 colon it was 0.936 µM; with M14 melanoma it was 0.463 µM; in the experiment on MALME-3M melanoma, 1.17 µM; with MCF7 breast, 1.01 µM; in the experiment with MDA-MB-435, 0.802 µM. For the same compound, the TGI with MDA-N stood at 0.671 µM; in the experiment on OVCAR-4 ovarian, 1.51 µM; in the experiment with SF-295 CNS, 1.39 µM; in the experiment on SW-620 colon, 0.982 µM; with TK-10 renal, 1.45 µM.

In the case of `C/C(=N\NC(N)=S)C(CN1CCCCC1)C(C1=C(O)c2ccccc2OC1)c1ccccc1` (configuration not stated), the TGI with 786-0 renal was greater than 100 µM; with A498 renal, greater than 100 µM; in the experiment on A549 NSCLC, greater than 100 µM; with EKVX NSCLC it was greater than 100 µM; with HCC-2998 colon, greater than 100 µM; with HL-60(TB) leukemia, 88.4 µM. In addition, the TGI with HS 578T breast, with KM12 colon, in the experiment with M14 melanoma, in the experiment on MALME-3M melanoma, with MCF7 breast and in the experiment on MDA-MB-435 was greater than 100 µM in each case. Moreover, the TGI in the experiment with MDA-N, in the experiment on OVCAR-4 ovarian, in the experiment with SF-295 CNS, with SW-620 colon and in the experiment on TK-10 renal was greater than 100 µM each time.

Turning to `COc1ccc(/C=C2/C(=O)N(/C=C3\C(=O)Oc4ccccc4C3=O)C(=NC(C)=O)N2C)cc1OC`, the TGI in the experiment on 786-0 renal, with A498 renal, in the experiment with A549 NSCLC, in the experiment with EKVX NSCLC, in the experiment on HCC-2998 colon and in the experiment on HL-60(TB) leukemia was greater than 100 µM each time. Also, the TGI with HS 578T breast, with KM12 colon, with M14 melanoma, in the experiment with MALME-3M melanoma, in the experiment on MCF7 breast and in the experiment with MDA-MB-435 was greater than 100 µM each time. Further, the TGI in the experiment on MDA-N, with OVCAR-4 ovarian, with SF-295 CNS, in the experiment with SW-620 colon and with TK-10 renal was greater than 100 µM throughout. For the same compound, the GI50 in the experiment on A498 renal and in the experiment on TK-10 renal was greater than 100 µM each time.

For the compound `Clc1ccc(C2=Cc3nc2c(-c2ccccc2)c2ccc([nH]2)c(-c2ccccc2)c2nc(c(-c4ccccc4)c4ccc([nH]4)c3-c3ccccc3)C=C2)cc1`, the TGI in the experiment with 786-0 renal, in the experiment on A498 renal, in the experiment on A549 NSCLC, in the experiment with EKVX NSCLC, in the experiment on HCC-2998 colon and in the experiment on HL-60(TB) leukemia was greater than 62.5 µM each time. Also, the TGI in the experiment with HS 578T breast, with KM12 colon, in the experiment on M14 melanoma, in the experiment on MALME-3M melanoma, in the experiment on MCF7 breast and in the experiment on MDA-MB-435 was greater than 62.5 µM in each case. For the same compound, the TGI in the experiment with MDA-N, in the experiment with OVCAR-4 ovarian, in the experiment on SF-295 CNS, with SW-620 colon and in the experiment with TK-10 renal was greater than 62.5 µM in each case.

Consider `COc1cc([N+](=O)[O-])cc2c1NC(=O)C2(C)SC` (configuration not stated), for which the TGI was greater than 100 µM in the experiment with 786-0 renal; greater than 100 µM in the experiment with A498 renal; greater than 100 µM with A549 NSCLC; greater than 100 µM in the experiment on EKVX NSCLC; greater than 100 µM in the experiment on HCC-2998 colon; 47.2 µM with HL-60(TB) leukemia. The TGI in the experiment with HS 578T breast, in the experiment on KM12 colon, in the experiment with M14 melanoma, with MALME-3M melanoma, in the experiment with MCF7 breast and in the experiment on MDA-MB-435 was greater than 100 µM in each case. In addition, the TGI in the experiment with MDA-N, with OVCAR-4 ovarian, in the experiment with SF-295 CNS, in the experiment with SW-620 colon and with TK-10 renal was greater than 100 µM each time.

Take `Oc1c(O)c(Cc2ccccc2)c(Cc2ccccc2)c(Cc2ccccc2)c1Cc1ccccc1`: the TGI in the experiment with 786-0 renal, with A498 renal, in the experiment with A549 NSCLC, in the experiment on EKVX NSCLC, in the experiment with HCC-2998 colon and with HL-60(TB) leukemia was greater than 10 µM each time. Besides, the TGI with HS 578T breast, with KM12 colon, in the experiment on M14 melanoma, in the experiment on MALME-3M melanoma, in the experiment with MCF7 breast and in the experiment with MDA-MB-435 was greater than 10 µM in each case. The TGI in the experiment with MDA-N, in the experiment on OVCAR-4 ovarian, with SF-295 CNS, in the experiment with SW-620 colon and with TK-10 renal was greater than 10 µM throughout.

Regarding `NC(=S)NN=C1Cc2ccccc2C1`, the TGI with 786-0 renal, in the experiment with A498 renal, in the experiment with A549 NSCLC, with EKVX NSCLC, in the experiment on HCC-2998 colon and in the experiment on HL-60(TB) leukemia was greater than 100 µM throughout. The TGI in the experiment on HS 578T breast, in the experiment on KM12 colon, with M14 melanoma, in the experiment on MALME-3M melanoma, in the experiment with MCF7 breast and in the experiment with MDA-MB-435 was greater than 100 µM in each case. Moreover, the TGI in the experiment on MDA-N, in the experiment on OVCAR-4 ovarian, with SF-295 CNS, with SW-620 colon and in the experiment on TK-10 renal was greater than 100 µM throughout.

On to `CC(=O)OC1OC(C2c3cccc(O)c3C(=O)c3c(O)cc(CO)cc32)C(O)C(O)C1O` (configuration not stated), for which the TGI in the experiment on 786-0 renal was 17 µM and 16.2 µM; in the experiment with A498 renal, 26.4 µM; in the experiment with A549 NSCLC, 21.2 µM and 29.5 µM; in the experiment on EKVX NSCLC it was 36.8 µM and 26 µM; with HCC-2998 colon, 5.81 µM and 6.58 µM; in the experiment on HL-60(TB) leukemia, 17.3 µM and 12.7 µM. Further, the TGI in the experiment with HS 578T breast was 7.38 µM and 7.12 µM; in the experiment on KM12 colon it was 4.54 µM and 4.23 µM; with M14 melanoma it was 24.4 µM and 24.8 µM; with MALME-3M melanoma, 19.5 µM and 25.3 µM; in the experiment on MCF7 breast it was 35.3 µM and > 100 µM; in the experiment on MDA-MB-435, 11.6 µM and 14.3 µM. In addition, the TGI is 13.5 µM and 8.28 µM in the experiment with MDA-N; greater than 100 µM in the experiment with OVCAR-4 ovarian; 10.5 µM and 22 µM in the experiment with SF-295 CNS; 10.8 µM and 19.3 µM with SW-620 colon; 19.4 µM and 22.4 µM in the experiment with TK-10 renal. Besides, the GI50 in the experiment on KM12 colon was 0.811 µM and 0.17 µM.

In the case of `CCOC(=O)n1ccc2c(C(=O)OC)c(C(=O)OC)cc(/C(=C/C(=O)OC)C(=O)OC)c21`, the TGI in the experiment on 786-0 renal, with A498 renal, in the experiment with A549 NSCLC, in the experiment on EKVX NSCLC, with HCC-2998 colon and with HL-60(TB) leukemia was greater than 100 µM in each case. The TGI in the experiment on HS 578T breast, in the experiment on KM12 colon, in the experiment with M14 melanoma, with MALME-3M melanoma, with MCF7 breast and in the experiment with MDA-MB-435 was greater than 100 µM throughout. Moreover, the TGI with MDA-N, in the experiment on OVCAR-4 ovarian, in the experiment with SF-295 CNS, in the experiment with SW-620 colon and with TK-10 renal was greater than 100 µM each time.

For `CCCCCCCCCCCCCCCCCCOC(COP(=O)(O)OCC1OC(n2cc(F)c(=O)[nH]c2=O)CC1O)COP(=O)(O)OCC1OC(n2ccc(N)nc2=O)C(O)C1O` (configuration not stated), the TGI in the experiment on 786-0 renal was 28.1 µM; in the experiment with A498 renal, greater than 100 µM; in the experiment on A549 NSCLC, greater than 63.6 µM; with EKVX NSCLC it was greater than 100 µM; in the experiment with HCC-2998 colon, greater than 70.5 µM; in the experiment with HL-60(TB) leukemia, greater than 100 µM. The TGI in the experiment with HS 578T breast is greater than 100 µM; in the experiment with KM12 colon it was greater than 100 µM; with M14 melanoma it was 62.5 µM; in the experiment on MALME-3M melanoma, greater than 100 µM; in the experiment with MCF7 breast, greater than 100 µM; with MDA-MB-435, greater than 100 µM. The TGI in the experiment with MDA-N, with OVCAR-4 ovarian, in the experiment with SF-295 CNS, with SW-620 colon and in the experiment on TK-10 renal was greater than 100 µM in each case.
